Results on 14 molecules are retold here after patent US7256007B2, “Methods of regulating cytokine signalling” (The Walter and Eliza Hall Institute of Medical Research, priority 2000, dated 2007).

The target of assay [1] is T1, SOCS-3 (Mus musculus, UniProt O35718).
T1 construct: hexahistidine (pET15b) (N); made in house; host or cells: E. coli BL21 DE3 pLysS
T1 sequence (O35718 1-225): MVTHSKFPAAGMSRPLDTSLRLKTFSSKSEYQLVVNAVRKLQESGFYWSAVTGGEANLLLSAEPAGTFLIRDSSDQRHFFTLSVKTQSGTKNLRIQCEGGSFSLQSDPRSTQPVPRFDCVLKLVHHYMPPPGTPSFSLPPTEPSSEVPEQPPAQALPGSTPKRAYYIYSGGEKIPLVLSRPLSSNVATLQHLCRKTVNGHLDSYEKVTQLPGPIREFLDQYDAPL
Kind of assay: Competitive binding assay on the Biosensor: soluble peptide displaces SOCS-3 from immobilized gp130 (750-764) phosphopeptide. Further details: species or system murine. Conditions: for IC50 analogue/IC50 wild-type: relative to gp130 (750-764) parent phosphopeptide; for IC50: IC50, Table 2, gp130(750-764) phosphopeptide and analogues. How it is done:
Purified protein was refolded by dialysis into PBS containing 2 mM DTT, 2 mM EDTA and 0.02% v/v Tween 20. Refolded material was purified to homogeneity by ion exchange chromatography on a Mono S column (Pharmacia).
Samples were left overnight at 4° C. prior to analysis on the Biosensor so that the rate of protein loss due to absorption was minimal through the course of the experiment.
The inventors also used this competition assay to reassess the potential solution binding of the phosphopeptides listed in FIG. 1A.

Assay [2] has as its target T2, SOCS-3 (recombinant, His-tagged) (mouse, UniProt O35718).
T2 chain: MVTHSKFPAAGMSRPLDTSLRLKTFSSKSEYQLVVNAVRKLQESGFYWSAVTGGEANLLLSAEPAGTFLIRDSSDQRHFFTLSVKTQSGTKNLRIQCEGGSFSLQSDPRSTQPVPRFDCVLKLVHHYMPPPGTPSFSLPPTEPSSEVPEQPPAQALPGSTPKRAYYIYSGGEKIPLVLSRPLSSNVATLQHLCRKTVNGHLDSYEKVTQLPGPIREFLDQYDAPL
Kind of assay: competition, SPR.

Square brackets hold non-standard residues; d marks the D form. Ends that are not written are not given here. Peptide text beside a SMILES is read from it. pY = N[C@@H](Cc1ccc(OP(=O)(O)O)cc1)C(=O)O

As usually defined, the IC50 is the concentration that gives 50% inhibition.

Regarding `CC(=O)N[C@@H](Cc1ccc(OP(=O)(O)O)cc1)C(=O)N[C@@H](CO)C(=O)N[C@H](C(=O)N[C@H](C(=O)N[C@H](C(=O)N[C@@H](Cc1c[nH]cn1)C(=O)N[C@@H](CO)C(=O)NCC(N)=O)C(C)C)C(C)C)[C@@H](C)O` [Ac(pY)STVVHSG] (Ac-[pY]STVVHSG-NH2), the “IC50 analogue/IC50 wild-type” value in assay [1] was 87.

Consider `CC(=O)N[C@@H](C)C(=O)N[C@@H](CCC(=O)O)C(=O)N[C@@H](Cc1ccc(OP(=O)(O)O)cc1)C(=O)N[C@@H](CO)C(=O)N[C@H](C(=O)N[C@H](C(=O)N[C@H](C(=O)N[C@@H](Cc1c[nH]cn1)C(=O)N[C@@H](CO)C(=O)NCC(N)=O)C(C)C)C(C)C)[C@@H](C)O` [AcAE(pY)STVVHSG] (Ac-AE[pY]STVVHSG-NH2), for which, in assay [1], the “IC50 analogue/IC50 wild-type” value came to 5.3.

For `CC(=O)N[C@@H](CCC(=O)O)C(=O)N[C@@H](Cc1ccc(OP(=O)(O)O)cc1)C(=O)N[C@@H](CO)C(=O)N[C@H](C(=O)N[C@H](C(=O)N[C@H](C(=O)N[C@@H](Cc1c[nH]cn1)C(=O)N[C@@H](CO)C(=O)NCC(N)=O)C(C)C)C(C)C)[C@@H](C)O` [AcE(pY)STVVHSG] (Ac-E[pY]STVVHSG-NH2), the “IC50 analogue/IC50 wild-type” value in assay [1] was 8.8.

On to `CC(=O)N[C@H](C(=O)N[C@H](C(=O)N[C@@H](CCC(=O)O)C(=O)N[C@@H](Cc1ccc(OP(=O)(O)O)cc1)C(=O)N[C@@H](CO)C(=O)N[C@H](C(=O)N[C@H](C(=O)N[C@H](C(=O)N[C@@H](Cc1c[nH]cn1)C(=O)N[C@@H](CO)C(=O)NCC(N)=O)C(C)C)C(C)C)[C@@H](C)O)C(C)C)[C@@H](C)O` [AcTVE(pY)STVVHSG], for which, in assay [1], the “IC50 analogue/IC50 wild-type” value worked out at 1.1.

With `CC(=O)N[C@H](C(=O)N[C@@H](C)C(=O)N[C@@H](Cc1ccc(OP(=O)(O)O)cc1)C(=O)N[C@@H](CO)C(=O)N[C@H](C(=O)N[C@H](C(=O)N[C@H](C(=O)N[C@@H](Cc1c[nH]cn1)C(=O)N[C@@H](CO)C(=O)NCC(N)=O)C(C)C)C(C)C)[C@@H](C)O)C(C)C` [AcVA(pY)STVVHSG] (Ac-VA[pY]STVVHSG-NH2), the “IC50 analogue/IC50 wild-type” value in assay [1] is recorded as 5.0.

Regarding `CC(C)[C@H](NC(=O)[C@@H](NC(=O)[C@@H](NC(=O)[C@H](C)NC(=O)[C@H](Cc1ccc(OP(=O)(O)O)cc1)NC(=O)[C@H](CCC(=O)O)NC(=O)[C@@H](NC(=O)[C@@H](NC(=O)[C@H](CO)NC(=O)[C@H](C)NC(=O)[C@@H](NC(=O)[C@@H](N)CO)[C@@H](C)O)[C@@H](C)O)C(C)C)[C@@H](C)O)C(C)C)C(=O)N[C@@H](Cc1c[nH]cn1)C(=O)N[C@@H](CO)C(=O)NCC(N)=O` [STASTVE(pY)ATVVHSG] (H-STASTVE[pY]ATVVHSG-NH2; N-terminus assumed), in assay [1], the “IC50 analogue/IC50 wild-type” value came to 0.65.

For `CC(C)[C@H](NC(=O)[C@H](C)NC(=O)[C@@H](NC(=O)[C@H](CO)NC(=O)[C@H](Cc1ccc(OP(=O)(O)O)cc1)NC(=O)[C@H](CCC(=O)O)NC(=O)[C@@H](NC(=O)[C@@H](NC(=O)[C@H](CO)NC(=O)[C@H](C)NC(=O)[C@@H](NC(=O)[C@@H](N)CO)[C@@H](C)O)[C@@H](C)O)C(C)C)[C@@H](C)O)C(=O)N[C@@H](Cc1c[nH]cn1)C(=O)N[C@@H](CO)C(=O)NCC(N)=O` [STASTVE(pY)STAVHSG] (H-STASTVE[pY]STAVHSG-NH2; N-terminus assumed), the “IC50 analogue/IC50 wild-type” value in assay [1] is reported as 31.

With `CC(C)[C@H](NC(=O)[C@@H](NC(=O)[C@H](CO)NC(=O)[C@H](Cc1ccc(OP(=O)(O)O)cc1)NC(=O)[C@H](CCC(=O)O)NC(=O)[C@@H](NC(=O)[C@@H](NC(=O)[C@H](CO)NC(=O)[C@H](C)NC(=O)[C@@H](NC(=O)[C@@H](N)CO)[C@@H](C)O)[C@@H](C)O)C(C)C)[C@@H](C)O)C(=O)N[C@@H](C)C(=O)N[C@@H](Cc1c[nH]cn1)C(=O)N[C@@H](CO)C(=O)NCC(N)=O` [STASTVE(pY)STVAHSG] (H-STASTVE[pY]STVAHSG-NH2; N-terminus assumed), in assay [1], the concentration for half-maximal inhibition (IC50) was 1100 nM and the “IC50 analogue/IC50 wild-type” value came out at 10.

With `CC(C)[C@H](NC(=O)[C@@H](NC(=O)[C@@H](NC(=O)[C@H](CO)NC(=O)[C@H](Cc1ccc(OP(=O)(O)O)cc1)NC(=O)[C@H](CCC(=O)O)NC(=O)[C@@H](NC(=O)[C@@H](NC(=O)[C@H](CO)NC(=O)[C@H](C)NC(=O)[C@@H](NC(=O)[C@@H](N)CO)[C@@H](C)O)[C@@H](C)O)C(C)C)[C@@H](C)O)C(C)C)C(=O)N[C@@H](C)C(=O)N[C@@H](CO)C(=O)NCC(N)=O` [STASTVE(pY)STVVASG] (H-STASTVE[pY]STVVASG-NH2; N-terminus assumed), the “IC50 analogue/IC50 wild-type” value in assay [1] was 7.0.

In the case of `CC(C)[C@H](NC(=O)[C@@H](NC(=O)[C@@H](NC(=O)[C@H](CO)NC(=O)[C@H](Cc1ccc(OP(=O)(O)O)cc1)NC(=O)[C@H](CCC(=O)O)NC(=O)[C@@H](NC(=O)[C@@H](NC(=O)[C@H](CO)NC(=O)[C@H](C)NC(=O)[C@@H](NC(=O)[C@@H](N)CO)[C@@H](C)O)[C@@H](C)O)C(C)C)[C@@H](C)O)C(C)C)C(=O)N[C@@H](Cc1c[nH]cn1)C(=O)N[C@@H](CO)C(N)=O` [STASTVE(pY)STVVHS], the “IC50 analogue/IC50 wild-type” value in assay [1] is reported as 0.55.

For `CC(C)[C@H](NC(=O)[C@@H](NC(=O)[C@@H](NC(=O)[C@H](CO)NC(=O)[C@H](Cc1ccc(OP(=O)(O)O)cc1)NC(=O)[C@H](CCC(=O)O)NC(=O)[C@@H](NC(=O)[C@@H](NC(=O)[C@H](CO)NC(=O)[C@H](C)NC(=O)[C@@H](NC(=O)[C@@H](N)CO)[C@@H](C)O)[C@@H](C)O)C(C)C)[C@@H](C)O)C(C)C)C(=O)N[C@@H](Cc1c[nH]cn1)C(N)=O` [STASTVE(pY)STVVH] (H-STASTVE[pY]STVVH-NH2; N-terminus assumed), the “IC50 analogue/IC50 wild-type” value in assay [1] is recorded as 0.70.

For the molecule `CC(C)[C@H](NC(=O)[C@@H](NC(=O)[C@@H](NC(=O)[C@H](CO)NC(=O)[C@H](Cc1ccc(OP(=O)(O)O)cc1)NC(=O)[C@H](CCC(=O)O)NC(=O)[C@@H](NC(=O)[C@@H](NC(=O)[C@H](CO)NC(=O)[C@H](C)NC(=O)[C@@H](NC(=O)[C@@H](N)CO)[C@@H](C)O)[C@@H](C)O)C(C)C)[C@@H](C)O)C(C)C)C(N)=O` [STASTVE(pY)STVV] (H-STASTVE[pY]STVV-NH2; N-terminus assumed), in assay [1], the IC50 came to 1100 nM and the “IC50 analogue/IC50 wild-type” value turned out to be 10.

B1: AcE(pY)STVVHSG (peptide)
chain: Ac-E[pY]STVVHSG-NH2
SMILES: CC(=O)N[C@@H](CCC(=O)O)C(=O)N[C@@H](Cc1ccc(OP(=O)(O)O)cc1)C(=O)N[C@@H](CO)C(=O)N[C@H](C(=O)N[C@H](C(=O)N[C@H](C(=O)N[C@@H](Cc1c[nH]cn1)C(=O)N[C@@H](CO)C(=O)NCC(N)=O)C(C)C)C(C)C)[C@@H](C)O
Regarding B1, the IC50 in assay [2] is 970 nM.

B2: gp130 phosphopeptide V12A (peptide)
chain: STASTVE[pY]STVAHSG-NH2
modifications: N-terminus assumed
SMILES: CC(C)[C@H](NC(=O)[C@@H](NC(=O)[C@H](CO)NC(=O)[C@H](Cc1ccc(OP(=O)(O)O)cc1)NC(=O)[C@H](CCC(=O)O)NC(=O)[C@@H](NC(=O)[C@@H](NC(=O)[C@H](CO)NC(=O)[C@H](C)NC(=O)[C@@H](NC(=O)[C@@H](N)CO)[C@@H](C)O)[C@@H](C)O)C(C)C)[C@@H](C)O)C(=O)N[C@@H](C)C(=O)N[C@@H](Cc1c[nH]cn1)C(=O)N[C@@H](CO)C(=O)NCC(N)=O
Consider B2, for which the concentration for half-maximal inhibition (IC50) in assay [2] was 1100 nM.
